Measurements published in patent publication US7226935B2, “Hypoglycemic agent” (Japan Science and Technology Corporation, priority 2001, dated 2007).

Key:
rat fat cells = assay: Inhibition of free fatty acid release from epinephrine-stimulated rat fat cells; format: cell-based; conditions: 10^-5 M epinephrine, 3 hours at 37° C., VOSO4 is 1.00 mM, other values are relative to it, read-out: IC50 (mM), concentration that inhibits 50% fatty acid release
Protocol: According to the method described in Biol. Pharm.
In silicon-processed vials, the fat cells isolated in the above (2.5×10^6 cells/ml) were pre-incubated in 1 ml of KRB buffer that contains a varying concentration (10^−4, 5×10^−4, 10^−3 M) of VOSO4 different Zn(II) complexes of the invention and 20 mg/ml of BSA, at 37° C. for 0.5 hours. Next, 10^−5 M of epinephrine was added to the reaction mixture, and the resulting solution was incubated at 37° C. for 3 hours. The reaction was stopped by cooling the mixture with ice, and the mixture was centrifuged at 3000 rpm for 10 minutes. The free fatty acid (FFA) level in the extracellular solution was measured with an NEFA kit, and IC50 of the test compound was calculated.

KK-A^y mice = assay: Glucose tolerance (glucose load) test in KK-A^y mice after 14-day administration; format: in vivo; conditions: for effect in glucose load test compared with Zn(2-AM-py)2Cl2 or Zn(Car)2Cl2 / diabetic condition in glucose load test: FIG. 21 and FIG. 22, 14-day intraperitoneal administration; for diabetic condition in glucose load test: vs diabetic control mice
Description: This is a glucose load test effected according to the method described in Biochem. Biophys. Res. Comm., 281, 1190-1193 (2001), in which the zinc(II) complex of the invention was intraperitoneally administered to KK-A^y mice for 14 days or was not thereto. […]

O=S(=O)([O-])[O-].[O]=[V+2] [VOSO4, oxovanadium sulfate, reference compound]
IC50 (rat fat cells): 1 mM

C[C@H](O)C(=O)O.C[C@H](O)C(=O)O.[Zn] [Zn(Lac)2, L-lactic Acid (Lac)/zinc(II) complex]
IC50 (rat fat cells): 0.81 mM

O=C1O[C@H]([C@@H](O)CO)C(O)=C1[O-].O=C1O[C@H]([C@@H](O)CO)C(O)=C1[O-].[Zn+2] [Zn(Vit-C)2, bis(L-ascorbic acid)/zinc(II) complex]
IC50 (rat fat cells): 0.8 mM

L-carnitine (γ-trimethyl-β-hydroxybutyrobetaine=Car)/zinc(II) complex [Zn(Car)2Cl2]
IC50 (rat fat cells): 0.8 mM

bis(2-aminomethylpyridine)/zinc(II) complex [Zn(2-AM-py)2Cl2]
IC50 (rat fat cells): 0.85 mM
blood glucose level after 120 minutes (KK-A^y mice; FIG. 19, 13-hour fasting after 14-day intraperitoneal administration, 1 g/kg glucose orally): almost the normal level
peak top of blood glucose level after glucose administration (KK-A^y mice; FIG. 19, 13-hour fasting after 14-day intraperitoneal administration, 1 g/kg glucose orally, vs no complex administration): low peak top
blood glucose level after 120 minutes (KK-A^y mice; FIG. 20, 13-hour fasting after 14-day administration, 1 g/kg glucose orally): almost the normal level
peak top of blood glucose level after glucose administration (KK-A^y mice; FIG. 20, 13-hour fasting after 14-day administration, vs oral L-carnitine and acacia solution alone): low peak top

bis(glycyl-N,N′-ethylene-L-alanyl-L-alanine ethyl ester)/zinc(II) complex [Zn(Gly-eAA-OEt)2Cl2]
IC50 (rat fat cells): 0.85 mM

bis(quinic acid)/zinc(II) complex [Zn(Qui)2]
IC50 (rat fat cells): 0.98 mM
effect in glucose load test compared with Zn(2-AM-py)2Cl2 or Zn(Car)2Cl2 (KK-A^y mice): somewhat lower
diabetic condition in glucose load test (KK-A^y mice): significantly ameliorated

bis(vitamin U)/zinc(II) complex [Zn(Vit-U)Cl2]
IC50 (rat fat cells): 0.84 mM
effect in glucose load test compared with Zn(2-AM-py)2Cl2 or Zn(Car)2Cl2 (KK-A^y mice): somewhat lower
diabetic condition in glucose load test (KK-A^y mice): significantly ameliorated

bis-(R)-2-(1-aminoethyl)pyridine (=α-pyridylethylamine)/zinc(II) complex [Zn((R)-2-AM-py)2Cl2]
IC50 (rat fat cells): 0.4 mM

bis-(S)-2-(1-aminoethyl)pyridine/zinc(II) complex [Zn((S)-2-AM-py)2Cl2]
IC50 (rat fat cells): 0.39 mM
